From PubChem BioAssay (NCI)
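Step 1: Grow cells in 96-well plates. Step 2: Expose to compound for 48 hours at 5 concentrations. Step 3: Interpolate endpoints linearly; if unreached, use highest concentration. At the TGI there is no net growth.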

How the values were obtained:
Assay in all cases: growth of human tumour cells (NCI), 48 h
A549 NSCLC = system: A549 NSCLC
HCT-116 colon = system: HCT-116 colon
HT29 colon = system: HT29 colon
NCI-H226 lung = system: NCI-H226 lung
NCI-H23 lung = system: NCI-H23 lung
NCI/ADR-RES ovarian = system: NCI/ADR-RES ovarian
RXF 393 renal = system: RXF 393 renal
SW-620 colon = system: SW-620 colon
NCI-H522 lung = system: NCI-H522 lung
UO-31 renal = system: UO-31 renal

Row | Compound | TGI (A549 NSCLC) | TGI (HCT-116 colon) | TGI (HT29 colon) | TGI (NCI-H226 lung) | TGI (NCI-H23 lung) | TGI (NCI/ADR-RES ovarian) | TGI (RXF 393 renal) | TGI (SW-620 colon) | TGI (NCI-H522 lung) | TGI (UO-31 renal)
1 | CCOC(=O)c1nc2cc(C(F)(F)F)ccc2nc1Nc1ccc(F)cc1 | > 100 µM | > 100 µM | > 100 µM | > 100 µM | > 100 µM | > 100 µM | > 100 µM | > 100 µM | – | –
2 | C[C@]12CC[C@H](O)CC1=CC[C@@H]1[C@@H]2CC[C@]2(C)c3nc(Cl)ccc3C[C@@H]12 | 96.9 µM | > 100 µM | > 100 µM | > 100 µM | > 100 µM | > 100 µM | > 100 µM | > 100 µM | > 100 µM | –
3 | Cc1[nH]c(=O)nc2nc3ccc(Cl)cc3c(NC(C)(CO)CO)c12 | > 100 µM | > 100 µM | > 100 µM | > 100 µM | > 100 µM | > 100 µM | 88.8 µM | > 100 µM | > 67.9 µM | 10.4 µM
4 | NC(=O)C[C@H](NC(=O)C1(NC(=O)[C@H](Cc2ccc(CP(=O)(O)O)cc2)NC(=O)C(=O)O)CCCCC1)C(=O)NCCCc1cccc2ccccc12 | > 10 µM | > 10 µM | > 10 µM | > 10 µM | > 10 µM | > 10 µM | > 10 µM | > 10 µM | > 10 µM | > 10 µM
5 | C[C@H](CN1CC(=O)NC(=O)C1)N1CC(=O)NC(=O)C1 | > 100 µM | > 100 µM | > 100 µM | > 100 µM | > 100 µM | > 100 µM | > 100 µM | > 84.4 µM | > 71.2 µM | > 44.1 µM
6 | CCOc1cc2c(cc1O)CC[C@@H]1[C@@H]2CC[C@]2(C)C(OS(=O)OC3CC[C@@H]4[C@H]5CCc6cc(O)c(OCC)cc6[C@@H]5CC[C@@]34C)CC[C@@H]12 (stereo partly specified) | 11.3 µM | > 39.6 µM | > 53.7 µM | 14.6 µM | 14 µM | 23.7 µM | > 20.5 µM | 11 µM | – | 27.4 µM
7 | C=CCCC(On1c(-c2ccc(Cl)cc2)csc1=S)c1ccccc1 (stereo unspecified) | > 100 µM | > 100 µM | > 100 µM | 81.8 µM | > 100 µM | > 100 µM | > 100 µM | > 100 µM | 71.7 µM | > 100 µM
8 | O=C(Cc1ccccc1)N=Nc1c(O)[nH]c2ccccc12 | > 100 µM | > 100 µM | > 100 µM | > 100 µM | > 100 µM | > 100 µM | > 100 µM | – | > 100 µM | > 100 µM
9 | Cc1nc2c(Cl)cc(Cl)cc2c(Cl)c1CCCl | > 100 µM | > 100 µM | > 100 µM | > 100 µM | > 100 µM | > 100 µM | 79.3 µM | > 100 µM | > 100 µM | > 100 µM
10 | Cc1cc(C)c2c(=N)c3ccccc3n(CCCCCCn3c4ccccc4c(=N)c4c(C)cc(C)nc43)c2n1 | 3.03 µM | 0.353 µM | 1.68 µM | 2.85 µM | 2.44 µM | – | 2.54 µM | 0.34 µM | 2.31 µM | 2.91 µM
11 | CCCCC1(N=[N+]=[N-])C(=O)C2C=CC=C3c4ccccc4N(C1=O)C32 (stereo unspecified) | > 31.6 µM | > 31.6 µM | 25.8 µM | > 31.6 µM | > 31.6 µM | > 31.6 µM | 23.7 µM | > 31.6 µM | 25.1 µM | > 31.6 µM
12 | CC(C)N1CCC2(CC1)NNc1ncccc1-n1cccc12 | > 100 µM | > 100 µM | > 100 µM | > 100 µM | > 100 µM | – | – | > 100 µM | > 100 µM | > 100 µM
13 | COc1cc(/C=C2\N=C(C)N(n3c(-c4ccccc4)nc4ccccc4c3=O)C2=O)cc(OC)c1OC | > 100 µM | > 100 µM | > 100 µM | > 100 µM | > 100 µM | – | – | > 100 µM | > 100 µM | > 100 µM
14 | CN1CCN(/C(N)=C(\C#N)C(=O)Nc2ccccc2)CC1 | > 100 µM | > 100 µM | – | > 100 µM | > 100 µM | > 100 µM | – | > 100 µM | – | > 100 µM
15 | COC(=O)c1c(O)ccc2c1c1c(n2Cc2ccccn2)C(=O)c2ccccc2C1=O | > 100 µM | > 100 µM | 17.4 µM | > 100 µM | > 100 µM | > 100 µM | > 100 µM | – | 95.6 µM | > 100 µM
16 | N#CCSc1c(-c2ccccc2)c(=O)n(-c2ccccc2)c(=S)n1-c1ccccc1 | > 100 µM | > 100 µM | > 100 µM | > 100 µM | > 100 µM | > 100 µM | – | > 100 µM | > 100 µM | > 100 µM
17 | COc1c(-c2cccs2)oc2c(CC(=O)O)cccc2c1=O | > 100 µM | > 100 µM | – | – | > 100 µM | – | > 100 µM | – | > 100 µM | 48.9 µM
18 | CC(=O)Nc1ccc(-c2nnc(SCC(=O)Nc3cccc([N+](=O)[O-])c3)o2)cc1 | 46.3 µM | 27.4 µM | 37.2 µM | 23.6 µM | 21.2 µM | – | 25.7 µM | 44 µM | 22.4 µM | 39.8 µM
19 | CC(C)=CCCC1(Sc2ccccc2)C(=O)OCC1C=C(C)C (stereo unspecified) | 78.1 µM | 45.8 µM | – | 73.7 µM | > 100 µM | > 100 µM | 45.1 µM | > 100 µM | 47.4 µM | > 100 µM
20 | Nc1nn(CC(O)CO)c(=O)s1 (stereo unspecified) | > 100 µM | > 100 µM | > 100 µM | > 100 µM | > 100 µM | – | > 100 µM | > 100 µM | – | > 100 µM
21 | CCCCCCCCCCCCCCCCCCOc1ccc(/C=C/C2=[N+](CCCl)CCO2)cc1 | > 100 µM | > 100 µM | > 100 µM | – | – | > 100 µM | – | > 100 µM | > 100 µM | > 100 µM
22 | Clc1ccc2nc(CC3CCCC3)[nH]c2c1 | 60.8 µM | 32 µM | 33.5 µM | 38.4 µM | 30.6 µM | 35.6 µM | 32.1 µM | > 100 µM | 21.2 µM | –
23 | COc1cc2c(cc1OC(=O)c1cc3ccccc3[nH]1)N=C[C@@H]1CCCN1C2=O | 12 µM | 3.19 µM | 0.36 µM | 5.97 µM | – | > 100 µM | 0.36 µM | 10.4 µM | 1.19 µM | –
